The record followed here is doi:10.1101/2025.11.20.689572v1 (biorxiv, 2025).

For one experiment, the target named is T1, 5-HT1F (Homo sapiens, UniProt P30939).
T1 construct: gene HTR1F; full-length receptor; HEK293 cell membranes
As to the kind of experiment: competitive radioligand binding, HEK293 membranes. The source says: competitive radioligand binding, HEK293 membranes on 5-HT1F

Another experiment addresses T2, α2B (Homo sapiens, UniProt P18089).
T2 construct: gene ADRA2B; full-length receptor; HEK293 cell membranes
Kind of experiment: competitive radioligand binding, HEK293 membranes. The source says:
competitive radioligand binding, HEK293 membranes on α2B

For the next experiment, the target named is T3, D5 (Homo sapiens, UniProt P21918).
T3 construct: gene DRD5
T3 sequence (P21918 whole entry): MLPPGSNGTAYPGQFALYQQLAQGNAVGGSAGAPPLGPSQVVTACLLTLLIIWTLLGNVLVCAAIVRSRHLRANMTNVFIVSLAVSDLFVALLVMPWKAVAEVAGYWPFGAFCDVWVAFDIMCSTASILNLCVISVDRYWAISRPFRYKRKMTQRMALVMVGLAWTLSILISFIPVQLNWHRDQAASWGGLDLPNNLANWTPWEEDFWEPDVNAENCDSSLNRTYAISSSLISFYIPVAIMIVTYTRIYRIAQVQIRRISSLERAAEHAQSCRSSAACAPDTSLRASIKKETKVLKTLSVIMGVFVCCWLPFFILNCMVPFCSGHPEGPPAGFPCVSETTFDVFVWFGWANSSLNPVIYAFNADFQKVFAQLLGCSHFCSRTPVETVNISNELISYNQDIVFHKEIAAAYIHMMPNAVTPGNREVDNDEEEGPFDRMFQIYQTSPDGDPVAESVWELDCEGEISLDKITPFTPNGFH
Kind of experiment: biochemical. Set-up: species or system HEK293; PDSP competitive radioligand binding, membranes of transfected HEK293 cells, filtration, Ki by Cheng-Prusoff. As to the method: (§1) Competitive radioligand binding assays were performed at the NIMH Psychoactive Drug Screening Program (PDSP) using membranes from transiently transfected HEK293 cells in 96-well format as described. Complete, target-specific protocols are available at the PDSP website (https://pdsp.unc.edu/pdspweb/?site=assays). Primary screenings were run at a single test concentration (10 µM) in quadruplicate. […] Secondary assays were conducted in triplicate using 12-point serial dilutions (0, 0.1, 0.3, 1, 3, 10, 30, 100, 300 nM; 1, 3, 10 µM). Assays were performed in a final volume of 125 µL per well in binding buffer, as detailed in the NIMH PDSP protocols (e.g., standard binding buffer: 50 mM Tris-HCl, pH 7.4, 10 mM MgCl2, 0.1 mM EDTA). Radioligand concentrations were chosen near the target-specific Kd. Total and nonspecific binding were defined in the absence and presence, respectively, of 10 µM reference ligand specific for each receptor. After 90 min incubation at room temperature, reactions were terminated by vacuum filtration onto 0.3% polyethyleneimine-pretreated UniFilter-96 GF/C Microplates using a FilterMate harvester, washed three times with ice-cold buffer (50 mM Tris HCl, pH 7.4), dried, treated with MicroScint-O [compound left out] scintillation cocktails, and counted on a MicroBeta counter. Equilibrium inhibition constants (Ki) were calculated from fitted IC50 values using the Cheng–Prusoff equation [14] with the assay-specific radioligand concentration and Kd. TABLE 1. […] Results represented mean ± SEM from a minimum of 3 independent assays, each in triplicate. ND=not determined.

For another experiment, the target named is T4, SERT (Homo sapiens, UniProt P31645).
T4 construct: gene SLC6A4
Kind of experiment: biochemical. Further details: species or system HEK293; PDSP competitive radioligand binding, membranes of transfected HEK293 cells, filtration, Ki by Cheng-Prusoff. As to the method:
as §1

The target of the next experiment is T5, DRD4 (Homo sapiens, UniProt P21917).
T5 sequence (P21917 1-419): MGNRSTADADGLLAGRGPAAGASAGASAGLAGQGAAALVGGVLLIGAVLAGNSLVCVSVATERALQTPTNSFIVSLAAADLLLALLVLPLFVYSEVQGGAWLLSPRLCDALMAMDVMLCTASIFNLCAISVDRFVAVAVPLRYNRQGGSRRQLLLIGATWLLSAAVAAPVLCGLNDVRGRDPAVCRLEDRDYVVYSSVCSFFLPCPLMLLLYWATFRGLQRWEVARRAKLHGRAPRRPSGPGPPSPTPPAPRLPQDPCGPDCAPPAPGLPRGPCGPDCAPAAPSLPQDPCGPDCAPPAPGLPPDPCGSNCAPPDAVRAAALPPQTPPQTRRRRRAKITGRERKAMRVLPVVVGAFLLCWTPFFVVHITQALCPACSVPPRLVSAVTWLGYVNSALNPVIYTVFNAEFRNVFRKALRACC
Kind of experiment: biochemical. Further details: species or system HEK293; PDSP competitive radioligand binding, membranes of transfected HEK293 cells, filtration, Ki by Cheng-Prusoff. As to the method: as §1

For the next experiment, the target named is T6, α1D (Homo sapiens, UniProt P25100).
T6 construct: gene ADRA1D
As to the kind of experiment: biochemical. Further details: species or system HEK293; PDSP competitive radioligand binding, membranes of transfected HEK293 cells, filtration, Ki by Cheng-Prusoff. As to the method:
as §1

The target of another experiment is DRD2 (Homo sapiens, UniProt P14416). As to the kind of experiment: biochemical. Further details: species or system HEK293; PDSP competitive radioligand binding, membranes of transfected HEK293 cells, filtration, Ki by Cheng-Prusoff. As to the method: as §1
DRD2, sequence (P14416 whole entry): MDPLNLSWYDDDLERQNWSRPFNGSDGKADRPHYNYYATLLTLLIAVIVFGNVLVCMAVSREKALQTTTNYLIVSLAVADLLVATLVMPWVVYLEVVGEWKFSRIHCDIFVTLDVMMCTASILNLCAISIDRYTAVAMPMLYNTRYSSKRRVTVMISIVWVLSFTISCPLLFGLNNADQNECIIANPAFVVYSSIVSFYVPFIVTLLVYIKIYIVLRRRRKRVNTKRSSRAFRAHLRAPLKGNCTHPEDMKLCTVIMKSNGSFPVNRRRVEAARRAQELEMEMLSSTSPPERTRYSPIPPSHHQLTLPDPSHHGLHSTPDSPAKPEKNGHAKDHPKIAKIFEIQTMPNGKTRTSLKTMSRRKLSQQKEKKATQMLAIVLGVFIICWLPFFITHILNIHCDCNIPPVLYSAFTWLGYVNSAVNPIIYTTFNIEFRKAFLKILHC
Another experiment addresses T7, DOR (Homo sapiens, UniProt P41143).
T7 construct: gene OPRD1
Kind of experiment: biochemical. Set-up: species or system HEK293; PDSP competitive radioligand binding, membranes of transfected HEK293 cells, filtration, Ki by Cheng-Prusoff. As to the method:
as §1

The next experiment has as its target T8, 5-HT3 (Homo sapiens, UniProt P46098).
T8 construct: gene HTR3A
As to the kind of experiment: biochemical. Set-up: species or system HEK293; PDSP competitive radioligand binding, membranes of transfected HEK293 cells, filtration, Ki by Cheng-Prusoff. As to the method:
as §1

The next experiment deals with T9, MOR (Homo sapiens, UniProt P35372).
T9 construct: gene OPRM1
T9 sequence (P35372 whole entry): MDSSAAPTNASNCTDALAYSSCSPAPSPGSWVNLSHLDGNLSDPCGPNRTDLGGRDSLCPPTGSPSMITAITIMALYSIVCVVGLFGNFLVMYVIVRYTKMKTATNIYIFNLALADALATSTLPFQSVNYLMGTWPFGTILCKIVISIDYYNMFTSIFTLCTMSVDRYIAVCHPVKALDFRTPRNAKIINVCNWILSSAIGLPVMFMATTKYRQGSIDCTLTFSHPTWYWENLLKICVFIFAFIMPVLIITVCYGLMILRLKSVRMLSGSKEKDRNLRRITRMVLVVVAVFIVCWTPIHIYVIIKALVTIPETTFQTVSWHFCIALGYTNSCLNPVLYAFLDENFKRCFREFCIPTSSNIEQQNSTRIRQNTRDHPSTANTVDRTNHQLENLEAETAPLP
As to the kind of experiment: biochemical. Further details: species or system HEK293; PDSP competitive radioligand binding, membranes of transfected HEK293 cells, filtration, Ki by Cheng-Prusoff. As to the method: as §1

Another experiment deals with T10, β1 (Homo sapiens, UniProt P08588).
T10 construct: gene ADRB1
T10 sequence (P08588 whole entry): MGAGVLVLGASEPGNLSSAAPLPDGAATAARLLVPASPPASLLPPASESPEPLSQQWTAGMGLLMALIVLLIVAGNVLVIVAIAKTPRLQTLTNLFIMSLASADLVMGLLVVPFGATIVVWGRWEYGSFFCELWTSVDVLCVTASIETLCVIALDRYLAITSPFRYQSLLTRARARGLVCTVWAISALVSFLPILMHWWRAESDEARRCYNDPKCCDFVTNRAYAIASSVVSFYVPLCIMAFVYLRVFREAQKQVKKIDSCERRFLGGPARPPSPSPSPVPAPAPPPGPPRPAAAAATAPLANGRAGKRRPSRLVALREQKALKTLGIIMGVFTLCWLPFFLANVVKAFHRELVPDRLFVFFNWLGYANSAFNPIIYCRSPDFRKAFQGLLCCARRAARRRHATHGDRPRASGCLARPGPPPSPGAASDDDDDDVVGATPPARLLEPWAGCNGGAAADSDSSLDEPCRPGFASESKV
Kind of experiment: biochemical. Further details: species or system HEK293; PDSP competitive radioligand binding, membranes of transfected HEK293 cells, filtration, Ki by Cheng-Prusoff. As to the method:
as §1

The next experiment addresses T11, α1B (Homo sapiens, UniProt P35368).
T11 construct: gene ADRA1B
Kind of experiment: biochemical. Set-up: species or system HEK293; PDSP competitive radioligand binding, membranes of transfected HEK293 cells, filtration, Ki by Cheng-Prusoff. As to the method: as §1

For the next experiment, the target named is T12, 5-HT2C (Homo sapiens, UniProt P28335).
T12 construct: gene HTR2C; full-length receptor; HEK293 cell membranes
T12 sequence (P28335 33-458): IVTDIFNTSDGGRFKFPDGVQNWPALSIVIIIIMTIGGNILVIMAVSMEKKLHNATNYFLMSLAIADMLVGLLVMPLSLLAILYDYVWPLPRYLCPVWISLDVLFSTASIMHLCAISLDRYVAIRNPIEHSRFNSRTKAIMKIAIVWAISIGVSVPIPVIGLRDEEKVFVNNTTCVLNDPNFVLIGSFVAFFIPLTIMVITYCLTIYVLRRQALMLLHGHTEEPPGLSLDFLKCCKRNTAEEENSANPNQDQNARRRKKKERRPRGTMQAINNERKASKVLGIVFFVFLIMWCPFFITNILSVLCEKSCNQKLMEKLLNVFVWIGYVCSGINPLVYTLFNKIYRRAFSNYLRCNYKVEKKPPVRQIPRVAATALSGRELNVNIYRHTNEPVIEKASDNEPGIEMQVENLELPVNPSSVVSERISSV
As to the kind of experiment: competitive radioligand binding, HEK293 membranes. The source says:
competitive radioligand binding, HEK293 membranes on 5-HT2C

Setting [1] is: read-out: N-desmethyl-xanomeline (PDSP) pKi (converted).

Read-outs that look alike come from different tables or passages of the source. Some results are limits rather than exact numbers.

T1 sequence (P30939 whole entry): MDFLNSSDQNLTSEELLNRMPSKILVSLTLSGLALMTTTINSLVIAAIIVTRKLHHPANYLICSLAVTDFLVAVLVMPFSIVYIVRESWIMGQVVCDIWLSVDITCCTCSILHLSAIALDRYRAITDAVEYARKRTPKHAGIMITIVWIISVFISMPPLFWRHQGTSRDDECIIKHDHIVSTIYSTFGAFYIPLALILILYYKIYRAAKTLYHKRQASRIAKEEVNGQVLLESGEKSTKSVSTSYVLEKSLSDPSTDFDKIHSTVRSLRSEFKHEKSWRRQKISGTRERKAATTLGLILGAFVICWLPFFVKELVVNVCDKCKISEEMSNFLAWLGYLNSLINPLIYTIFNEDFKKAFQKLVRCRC
T11 sequence (P35368 whole entry): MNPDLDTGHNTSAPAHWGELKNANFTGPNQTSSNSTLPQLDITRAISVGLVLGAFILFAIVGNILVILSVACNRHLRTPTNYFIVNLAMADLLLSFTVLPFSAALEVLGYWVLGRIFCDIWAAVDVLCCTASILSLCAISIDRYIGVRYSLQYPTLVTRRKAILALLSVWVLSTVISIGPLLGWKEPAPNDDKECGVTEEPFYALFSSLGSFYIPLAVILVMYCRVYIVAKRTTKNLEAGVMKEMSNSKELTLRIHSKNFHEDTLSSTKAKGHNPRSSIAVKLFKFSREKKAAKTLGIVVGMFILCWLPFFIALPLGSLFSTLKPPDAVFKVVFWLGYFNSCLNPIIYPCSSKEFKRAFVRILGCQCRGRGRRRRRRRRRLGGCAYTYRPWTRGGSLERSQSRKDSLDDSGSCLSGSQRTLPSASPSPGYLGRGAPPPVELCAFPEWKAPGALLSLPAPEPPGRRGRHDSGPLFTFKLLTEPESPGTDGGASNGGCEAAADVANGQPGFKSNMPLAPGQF
T7 sequence (P41143 whole entry): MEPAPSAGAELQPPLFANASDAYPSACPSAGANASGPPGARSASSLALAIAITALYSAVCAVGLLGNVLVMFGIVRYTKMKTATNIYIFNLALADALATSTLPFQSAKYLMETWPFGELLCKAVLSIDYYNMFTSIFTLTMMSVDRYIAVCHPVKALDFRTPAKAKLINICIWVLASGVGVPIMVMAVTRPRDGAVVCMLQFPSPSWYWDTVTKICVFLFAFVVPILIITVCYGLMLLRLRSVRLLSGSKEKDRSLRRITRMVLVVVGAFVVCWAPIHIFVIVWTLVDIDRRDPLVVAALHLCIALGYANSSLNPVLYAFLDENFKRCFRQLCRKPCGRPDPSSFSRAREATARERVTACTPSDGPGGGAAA
T2 sequence (P18089 whole entry): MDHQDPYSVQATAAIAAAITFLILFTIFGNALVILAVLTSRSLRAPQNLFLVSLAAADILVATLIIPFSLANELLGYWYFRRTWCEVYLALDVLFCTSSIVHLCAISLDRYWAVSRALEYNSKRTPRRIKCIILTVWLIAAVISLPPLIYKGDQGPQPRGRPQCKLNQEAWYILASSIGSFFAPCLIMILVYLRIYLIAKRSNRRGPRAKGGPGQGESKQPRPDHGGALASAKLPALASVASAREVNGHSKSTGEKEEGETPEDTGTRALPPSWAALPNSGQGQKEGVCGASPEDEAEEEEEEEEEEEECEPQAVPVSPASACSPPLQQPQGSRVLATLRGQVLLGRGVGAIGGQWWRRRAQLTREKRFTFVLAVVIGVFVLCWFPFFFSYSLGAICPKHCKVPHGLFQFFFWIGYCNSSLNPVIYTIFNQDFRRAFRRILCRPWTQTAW
T8 sequence (P46098 whole entry): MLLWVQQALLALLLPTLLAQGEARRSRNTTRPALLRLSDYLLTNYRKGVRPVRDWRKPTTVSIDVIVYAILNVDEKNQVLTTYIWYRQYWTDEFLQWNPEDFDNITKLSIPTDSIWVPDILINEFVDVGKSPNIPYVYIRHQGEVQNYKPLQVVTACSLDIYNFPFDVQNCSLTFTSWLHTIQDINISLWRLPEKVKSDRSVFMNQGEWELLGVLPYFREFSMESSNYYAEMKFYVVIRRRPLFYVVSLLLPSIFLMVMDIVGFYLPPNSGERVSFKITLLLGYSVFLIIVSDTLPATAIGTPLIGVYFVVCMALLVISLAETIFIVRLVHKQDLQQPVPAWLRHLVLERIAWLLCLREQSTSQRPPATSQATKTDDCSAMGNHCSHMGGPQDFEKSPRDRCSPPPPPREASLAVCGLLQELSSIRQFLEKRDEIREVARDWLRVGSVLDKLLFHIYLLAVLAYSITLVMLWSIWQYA

Take `CCCCCCOc1nsnc1C1=CCCNC1` [N-desmethylxanomeline]: the Ki on 5-HT1F is 0.224 µM; on α2B, 0.339 µM; on D5 (setting [1]) it was > 10 µM; at SERT (setting [1]), 1.62 µM; on DRD4 (setting [1]), > 10 µM; at α1D (setting [1]), 3.31 µM. Further, the Ki is 6.61 µM on DRD2 (setting [1]); > 10 µM at DOR (setting [1]); 2.4 µM at 5-HT3 (setting [1]); 7.94 µM at MOR (setting [1]); 8.71 µM on β1 (setting [1]); 7.24 µM on α1B (setting [1]). For the same molecule, the Ki at 5-HT2C was 0.324 µM.

Take `CCCCCCOc1nsnc1C1=CCCN(C)C1` [Xanomeline]: the Ki at 5-HT1F was 0.759 µM; at α2B it was 0.316 µM; at D5, > 10 µM; on SERT, > 10 µM; at DRD4, 2 µM; at α1D, > 10 µM. Besides, the Ki on DRD2, on DOR, on 5-HT3, on MOR, at β1 and on α1B was > 10 µM throughout. Further, the Ki at 5-HT2C is 0.204 µM.
